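Grown in 96-well plates, cells were treated for 48 hours with each compound at five concentrations. Insufficient inhibition: endpoint recorded as highest concentration tested. At the GI50, growth is halved. The concentration for full growth arrest is given as TGI.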
Legend:
Assay in all cases: NCI tumour cell line growth inhibition, 48 h
[1] = tested on: HOP-62 NSCLC
[2] = tested on: MOLT-4 leukemia
[3] = tested on: HCC-2998 colon
[4] = tested on: UACC-257 melanoma
[5] = tested on: LOX IMVI melanoma
[6] = tested on: NCI-H460 lung
[7] = tested on: K-562 leukemia
[8] = tested on: SK-MEL-2 melanoma
[9] = tested on: DU-145 prostate
[10] = tested on: PC-3 prostate

Compound: Oc1cc(O)c2c(-c3c(O)c(-c4ccc(O)c(O)c4)[o+]c4cc(O)cc(O)c34)c(O)c(-c3ccc(O)c(O)c3)[o+]c2c1
- TGI [1]: 97.8 µM
- TGI [2]: > 100 µM
- TGI [3]: > 100 µM
- TGI [4]: > 100 µM
- TGI [5]: > 100 µM
- TGI [6]: 90.6 µM

Compound: CCC/C(=N/NC(=O)C(N)=O)C(CC)C(=O)CCC(=O)N(Cc1ccccc1)Cc1ccccc1 (configuration not stated)
- TGI [1]: > 100 µM
- TGI [7]: > 100 µM
- TGI [8]: > 100 µM
- TGI [2]: > 100 µM
- TGI [3]: > 100 µM
- TGI [4]: > 100 µM
- TGI [5]: > 100 µM
- TGI [6]: > 100 µM

Compound: CCOc1ccccc1NC(=O)CC1SC(=Nc2ccc([N+](=O)[O-])cc2)NC1=O (configuration not stated)
- TGI [1]: 34.3 µM
- TGI [8]: 41.5 µM
- TGI [2]: 60.3 µM
- TGI [3]: 36.7 µM
- TGI [4]: 46.1 µM
- TGI [5]: 47.1 µM
- TGI [6]: 51.1 µM

Compound: COc1c(OC)c(OC)c2c(c1OC)c(=O)c1ccccc1n2C
- TGI [1]: > 100 µM
- TGI [7]: > 100 µM
- TGI [8]: > 100 µM
- TGI [2]: > 100 µM
- TGI [9]: > 100 µM
- TGI [3]: > 100 µM
- TGI [4]: > 100 µM
- TGI [5]: > 100 µM
- TGI [10]: > 100 µM

Compound: Fc1ccc2c(c1)c(-c1nc(-c3c[nH]c4ncccc34)cs1)cn2CCCN1CCCCC1
- GI50 [7]: 1.72 µM
- TGI [7]: 3.6 µM
- GI50 [8]: 1.96 µM
- TGI [8]: 4.25 µM
- GI50 [9]: 1.74 µM
- TGI [9]: 3.26 µM
- GI50 [3]: 1.7 µM
- TGI [3]: 3.14 µM
- GI50 [4]: 1.92 µM
- TGI [4]: 3.7 µM
- GI50 [10]: 1.69 µM
- TGI [10]: 3.2 µM

Compound: N#CC(C(=O)CCC(=O)C(C#N)c1ccccc1)c1ccccc1 (configuration not stated)
- TGI [1]: > 100 µM
- TGI [7]: > 100 µM
- TGI [8]: > 100 µM
- TGI [2]: > 100 µM
- TGI [3]: > 100 µM
- TGI [4]: > 100 µM
- TGI [5]: > 100 µM
- TGI [6]: > 100 µM

Compound: O=C1C(Cl)=C(Nc2cccc(Cl)c2)C(=O)N1Cc1ccccc1Cl
- GI50 [1]: 15.8 µM
- TGI [1]: 37.9 µM
- GI50 [7]: 1.87 µM
- TGI [7]: 8.91 µM
- GI50 [8]: 4.33 µM
- TGI [8]: 23.1 µM
- GI50 [2]: 0.37 µM
- TGI [2]: > 100 µM
- GI50 [9]: 18.2 µM
- TGI [9]: 38.1 µM
- GI50 [4]: 12.8 µM
- TGI [4]: 30.9 µM
- GI50 [5]: 1.64 µM
- TGI [5]: 3.76 µM
- GI50 [6]: 11.8 µM
- TGI [6]: 27 µM
- GI50 [10]: 4.8 µM
- TGI [10]: 21.3 µM

Compound: O=C1NC(=O)C2C(=O)NC(=O)C1C2(c1ccccc1)c1cc[nH]c1 (configuration not stated)
- TGI [1]: > 100 µM
- TGI [7]: > 100 µM
- TGI [8]: > 100 µM
- TGI [2]: > 100 µM
- TGI [3]: > 100 µM
- TGI [4]: > 100 µM
- TGI [5]: > 100 µM
- TGI [6]: > 100 µM

Compound: Cc1ccc(/C=C2/SC(Nc3nc(-c4csc(NC5=NC(=O)/C(=C\c6ccc(C)cc6)S5)n4)cs3)=NC2=O)cc1
- GI50 [1]: 1.94 µM
- TGI [1]: 15.5 µM
- GI50 [7]: 1.91 µM
- TGI [7]: > 50 µM
- GI50 [8]: > 50 µM
- TGI [8]: > 50 µM
- GI50 [2]: 18.5 µM
- TGI [2]: > 50 µM
- GI50 [9]: 9.28 µM
- TGI [9]: > 50 µM
- GI50 [3]: 7.23 µM
- TGI [3]: 27.7 µM
- GI50 [4]: 2.81 µM
- TGI [4]: 14.6 µM
- GI50 [6]: 4.36 µM
- TGI [6]: > 50 µM
- GI50 [10]: 6.52 µM
- TGI [10]: > 50 µM

Compound: CCC1(c2c(F)c(F)c(N)c(F)c2F)CCC(=O)NC1=O (configuration not stated)
- TGI [1]: > 100 µM
- TGI [7]: > 100 µM
- TGI [8]: > 100 µM
- TGI [2]: > 100 µM
- TGI [3]: > 100 µM
- TGI [4]: > 100 µM
- TGI [5]: > 100 µM
- TGI [6]: > 100 µM

Compound: CC(=O)[CH-]C(=O)c1ccccc1.CC(=O)[CH-]C(=O)c1ccccc1.CC1(C)C2CCC1(C)C([O-])C2.CC1(C)C2CCC1(C)C([O-])C2.[Ti+4]
- GI50 [1]: 25.7 µM
- TGI [1]: 81.8 µM
- GI50 [7]: 30.5 µM
- TGI [7]: > 100 µM
- GI50 [8]: 14.2 µM
- TGI [8]: 29.6 µM
- GI50 [2]: 34.8 µM
- TGI [2]: > 100 µM
- GI50 [3]: 38.5 µM
- TGI [3]: > 100 µM
- GI50 [4]: 88.7 µM
- TGI [4]: > 100 µM
- GI50 [5]: 25.1 µM
- TGI [5]: > 100 µM
- GI50 [6]: 47.7 µM
- TGI [6]: > 100 µM

Compound: CC1(c2cccc3ccccc23)OC(=O)c2ccccc21 (configuration not stated)
- TGI [1]: 41.6 µM
- TGI [7]: 65.8 µM
- TGI [8]: 62.6 µM
- TGI [2]: 55.6 µM
- TGI [3]: 35.6 µM
- TGI [4]: 54.5 µM
- TGI [5]: 42.8 µM
- TGI [6]: 52.8 µM

Compound: COC(=O)C1=C(C(=O)ON)C2C=CC1(C(Cc1ccccc1)Nc1ccccc1)O2 (configuration not stated)
- GI50 [1]: 14.4 µM
- TGI [1]: 27.9 µM
- GI50 [8]: 11.6 µM
- TGI [8]: 24.4 µM
- GI50 [2]: 2.9 µM
- TGI [2]: 9.49 µM
- GI50 [9]: 2.01 µM
- TGI [9]: 4.18 µM
- GI50 [3]: 16.9 µM
- TGI [3]: 32.3 µM
- GI50 [4]: 1.81 µM
- TGI [4]: 3.34 µM
- GI50 [5]: 1.74 µM
- TGI [5]: 3.24 µM
- GI50 [6]: 18 µM
- TGI [6]: 40.7 µM
- GI50 [10]: 5.58 µM
- TGI [10]: 19.9 µM

Compound: c1ccc2[nH]c(-c3ccc(NN=Nc4ccncc4)cc3)nc2c1
- GI50 [1]: > 100 µM
- TGI [1]: > 100 µM
- GI50 [7]: 14.6 µM
- TGI [7]: 61.8 µM
- GI50 [8]: 15.4 µM
- TGI [8]: > 100 µM
- GI50 [2]: > 100 µM
- TGI [2]: > 100 µM
- GI50 [9]: 47 µM
- TGI [9]: > 100 µM
- GI50 [4]: > 100 µM
- TGI [4]: > 100 µM
- GI50 [5]: 6.59 µM
- TGI [5]: 38.4 µM
- GI50 [6]: 2.46 µM
- TGI [6]: > 100 µM
- GI50 [10]: 33 µM
- TGI [10]: > 100 µM

Compound: COC(=O)C(=O)OC1(C(C)=O)CC2(c3ccccc3)OC1(c1ccccc1)c1ccccc12 (configuration not stated)
- TGI [1]: 32.8 µM
- TGI [7]: > 100 µM
- TGI [2]: > 100 µM
- TGI [3]: 31.4 µM
- TGI [4]: 31.6 µM
- TGI [5]: 30.4 µM
- TGI [6]: 36.2 µM

Compound: Oc1ccccc1C=NCc1ccco1
- TGI [1]: > 100 µM
- TGI [7]: > 100 µM
- TGI [2]: > 100 µM
- TGI [4]: > 100 µM
- TGI [5]: > 100 µM
- TGI [6]: > 100 µM

Compound: BrC1=CC=C2NC=CC3=CC=NC1C32 (configuration not stated)
- TGI [1]: > 100 µM
- TGI [7]: 52.8 µM
- TGI [8]: 56.9 µM
- TGI [2]: 15.6 µM
- TGI [3]: > 100 µM
- TGI [4]: 98.8 µM
- TGI [5]: 21.4 µM
- TGI [6]: 17.9 µM

Compound: N/C(=C\c1ccc(OCc2ccccc2)c(OCc2ccccc2)c1[N+](=O)[O-])C(=O)O
- TGI [1]: > 100 µM
- TGI [7]: > 100 µM
- TGI [8]: > 100 µM
- TGI [2]: > 100 µM
- TGI [3]: > 100 µM
- TGI [4]: > 100 µM
- TGI [5]: > 100 µM

Compound: O=NNc1ccc(S(=O)(=O)c2ccccc2)cn1
- TGI [1]: > 100 µM
- TGI [7]: > 100 µM
- TGI [8]: > 100 µM
- TGI [2]: > 100 µM
- TGI [9]: > 100 µM
- TGI [3]: > 100 µM
- TGI [4]: > 100 µM
- TGI [6]: > 100 µM
- TGI [10]: > 100 µM

Compound: N#CC(C(=O)/C(=N/N)C(C#N)c1ccccc1)c1ccccc1 (configuration not stated)
- TGI [1]: > 100 µM
- TGI [7]: > 100 µM
- TGI [8]: > 100 µM
- TGI [2]: > 100 µM
- TGI [3]: > 100 µM
- TGI [4]: > 100 µM
- TGI [5]: > 100 µM
- TGI [6]: > 100 µM

— PubChem BioAssay (NCI)
